These are literature values, as cited in patent publication US20070141140A1, “Semi-solid formulations for immediate release intended for the oral administration of drugs” (PHARMACIA ITALISA S.P.A., priority 2003, published 2007).

The conditions of this data set: for weight concentration in the semi-solid matrix above which dissolution velocity drops significantly: polyethylene glycol or Gelucire 44/14 matrix.

Regarding `Nc1nc(N)c2nc(-c3ccccc3)c(N)nc2n1` [Triamterene], the “weight concentration in the semi-solid matrix above which dissolution velocity drops significantly” value is given as “exceeding 5%”. Moreover, the active ingredient released entry (PEG 1500 matrix, 10% by weight Triamterene, 2 or 5% polysorbate 80 (Tween 80), in an hour) is given as “at least 80%”. For the compound `CN1C(=O)C(O)N=C(c2ccccc2)c2cc(Cl)ccc21` (stereo not drawn) [temazepam, Temazepam], the “weight concentration in the semi-solid matrix above which dissolution velocity drops significantly” value was more than 15%.
